In general, inhibition refers to the relative decrease from the control value, in per cent.

We go through 7 molecules from ChEMBL document CHEMBL3132769, “Fragment growing to retain or alter the selectivity of anchored kinase hinge-binding fragments” (Medchemcomm, 2014).

The target of assay [1] is Protein kinase C beta type (Homo sapiens) (UniProt P05771). As to the kind of experiment: Inhibition of human truncated PKC beta1 expressed in baculovirus assessed as substrate phosphorylation using fluorescence-labelled peptides as substrate at 0.2 uM after 90 mins by microfluidic peptide phosphorylation assay.
Sequence of Protein kinase C beta type (Homo sapiens) (P05771 2-671 limits assumed): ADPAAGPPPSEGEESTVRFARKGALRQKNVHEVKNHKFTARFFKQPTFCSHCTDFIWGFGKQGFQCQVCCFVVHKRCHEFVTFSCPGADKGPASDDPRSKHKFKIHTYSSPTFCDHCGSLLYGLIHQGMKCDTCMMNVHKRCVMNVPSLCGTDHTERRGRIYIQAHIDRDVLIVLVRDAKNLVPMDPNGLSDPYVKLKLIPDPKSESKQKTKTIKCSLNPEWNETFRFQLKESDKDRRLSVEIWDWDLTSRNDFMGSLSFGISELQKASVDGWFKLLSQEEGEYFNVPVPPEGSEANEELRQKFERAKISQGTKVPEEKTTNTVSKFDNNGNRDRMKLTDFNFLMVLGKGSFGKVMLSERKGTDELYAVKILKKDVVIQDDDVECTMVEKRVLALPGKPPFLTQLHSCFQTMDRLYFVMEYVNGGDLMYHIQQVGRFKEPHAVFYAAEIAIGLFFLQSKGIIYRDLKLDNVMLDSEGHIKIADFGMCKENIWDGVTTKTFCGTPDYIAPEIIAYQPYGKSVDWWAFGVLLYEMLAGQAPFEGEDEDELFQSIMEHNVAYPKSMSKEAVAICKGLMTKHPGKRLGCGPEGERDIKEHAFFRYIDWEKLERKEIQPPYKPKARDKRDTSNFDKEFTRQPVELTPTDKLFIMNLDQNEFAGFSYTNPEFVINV
For assay [2], the target named is Glycogen synthase kinase-3 beta (Homo sapiens) (UniProt P49841). The assay is described as follows: Inhibition of human full length GSK-3 beta expressed in baculovirus assessed as substrate phosphorylation using fluorescence-labelled peptides as substrate at 0.2 uM after 90 mins by microfluidic peptide phosphorylation assay.
Sequence of Glycogen synthase kinase-3 beta (Homo sapiens) (P49841 whole entry, looked up): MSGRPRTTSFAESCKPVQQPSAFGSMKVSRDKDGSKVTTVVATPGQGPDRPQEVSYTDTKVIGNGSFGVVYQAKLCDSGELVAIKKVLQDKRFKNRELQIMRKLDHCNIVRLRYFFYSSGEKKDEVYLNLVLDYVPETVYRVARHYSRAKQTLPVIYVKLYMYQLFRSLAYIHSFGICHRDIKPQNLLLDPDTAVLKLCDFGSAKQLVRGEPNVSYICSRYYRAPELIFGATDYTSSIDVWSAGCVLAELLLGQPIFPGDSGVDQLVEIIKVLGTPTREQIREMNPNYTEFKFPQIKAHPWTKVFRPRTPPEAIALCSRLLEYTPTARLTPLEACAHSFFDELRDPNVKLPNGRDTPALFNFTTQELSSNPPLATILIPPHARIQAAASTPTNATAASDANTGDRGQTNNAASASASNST
In assay [3] the target is T1, Mitogen-activated protein kinase 12 (Homo sapiens) (UniProt P53778).
T1 sequence (whole entry): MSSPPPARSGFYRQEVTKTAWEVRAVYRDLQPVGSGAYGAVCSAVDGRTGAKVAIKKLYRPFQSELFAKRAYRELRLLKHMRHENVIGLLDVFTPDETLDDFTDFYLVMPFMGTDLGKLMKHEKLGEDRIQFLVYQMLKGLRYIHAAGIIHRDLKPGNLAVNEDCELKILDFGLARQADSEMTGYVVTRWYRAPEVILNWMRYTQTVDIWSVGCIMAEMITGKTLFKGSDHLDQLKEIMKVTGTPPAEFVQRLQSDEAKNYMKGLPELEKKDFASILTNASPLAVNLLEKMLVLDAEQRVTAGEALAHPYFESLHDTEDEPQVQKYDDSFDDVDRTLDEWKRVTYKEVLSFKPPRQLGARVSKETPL
As to the kind of experiment: Inhibition of human full length p38 gamma expressed in Escherichia coli cell assessed as substrate phosphorylation using fluorescence-labelled peptides as substrate at 0.2 uM after 90 mins by microfluidic peptide phosphorylation assay.

In assay [4] the target is Epidermal growth factor receptor (Homo sapiens) (UniProt P00533). The assay is described as follows: Inhibition of human EGFR catalytic domain expressed in baculovirus assessed as substrate phosphorylation using fluorescence-labelled peptides as substrate at 0.1 uM after 90 mins by microfluidic peptide phosphorylation assay.
Sequence of Epidermal growth factor receptor (Homo sapiens) (P00533 whole entry, the tested form may be a part): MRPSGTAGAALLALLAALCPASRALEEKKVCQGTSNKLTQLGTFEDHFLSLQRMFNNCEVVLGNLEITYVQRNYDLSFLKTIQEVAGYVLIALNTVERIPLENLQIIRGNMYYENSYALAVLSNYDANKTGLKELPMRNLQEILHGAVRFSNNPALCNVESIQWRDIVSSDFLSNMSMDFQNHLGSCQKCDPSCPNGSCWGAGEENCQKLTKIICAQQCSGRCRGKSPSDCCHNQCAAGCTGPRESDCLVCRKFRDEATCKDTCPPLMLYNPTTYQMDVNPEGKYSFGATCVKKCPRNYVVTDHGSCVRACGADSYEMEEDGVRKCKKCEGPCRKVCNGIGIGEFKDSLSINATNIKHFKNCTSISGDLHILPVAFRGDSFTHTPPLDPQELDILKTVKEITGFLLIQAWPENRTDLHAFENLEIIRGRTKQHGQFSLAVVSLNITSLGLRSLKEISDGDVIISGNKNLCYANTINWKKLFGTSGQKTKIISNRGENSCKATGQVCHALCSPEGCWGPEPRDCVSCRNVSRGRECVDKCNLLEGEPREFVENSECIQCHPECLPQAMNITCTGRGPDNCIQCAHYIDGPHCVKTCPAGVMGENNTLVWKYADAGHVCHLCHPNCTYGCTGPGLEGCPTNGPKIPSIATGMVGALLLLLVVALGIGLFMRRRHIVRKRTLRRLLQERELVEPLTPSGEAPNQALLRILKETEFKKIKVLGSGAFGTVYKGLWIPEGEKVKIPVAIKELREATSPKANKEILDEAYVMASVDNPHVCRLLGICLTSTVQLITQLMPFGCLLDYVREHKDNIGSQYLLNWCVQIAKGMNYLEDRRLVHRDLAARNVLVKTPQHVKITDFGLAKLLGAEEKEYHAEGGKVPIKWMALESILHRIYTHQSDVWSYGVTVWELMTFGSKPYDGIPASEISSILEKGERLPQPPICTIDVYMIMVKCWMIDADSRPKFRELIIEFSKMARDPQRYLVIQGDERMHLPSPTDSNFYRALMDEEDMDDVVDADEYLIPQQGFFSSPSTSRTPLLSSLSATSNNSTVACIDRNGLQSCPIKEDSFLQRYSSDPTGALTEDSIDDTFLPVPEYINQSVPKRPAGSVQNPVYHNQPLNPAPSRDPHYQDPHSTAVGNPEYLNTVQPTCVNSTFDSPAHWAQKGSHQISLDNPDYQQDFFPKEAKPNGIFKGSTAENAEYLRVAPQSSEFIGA
Assay [5] deals with Rho-associated protein kinase 2 (Homo sapiens) (UniProt O75116). The assay is described as follows: Inhibition of human ROCK2 catalytic domain expressed in baculovirus assessed as substrate phosphorylation using fluorescence-labelled peptides as substrate at 420 uM after 90 mins by microfluidic peptide phosphorylation assay.
Sequence of Rho-associated protein kinase 2 (Homo sapiens) (O75116 whole entry, looked up, the tested form may be a part): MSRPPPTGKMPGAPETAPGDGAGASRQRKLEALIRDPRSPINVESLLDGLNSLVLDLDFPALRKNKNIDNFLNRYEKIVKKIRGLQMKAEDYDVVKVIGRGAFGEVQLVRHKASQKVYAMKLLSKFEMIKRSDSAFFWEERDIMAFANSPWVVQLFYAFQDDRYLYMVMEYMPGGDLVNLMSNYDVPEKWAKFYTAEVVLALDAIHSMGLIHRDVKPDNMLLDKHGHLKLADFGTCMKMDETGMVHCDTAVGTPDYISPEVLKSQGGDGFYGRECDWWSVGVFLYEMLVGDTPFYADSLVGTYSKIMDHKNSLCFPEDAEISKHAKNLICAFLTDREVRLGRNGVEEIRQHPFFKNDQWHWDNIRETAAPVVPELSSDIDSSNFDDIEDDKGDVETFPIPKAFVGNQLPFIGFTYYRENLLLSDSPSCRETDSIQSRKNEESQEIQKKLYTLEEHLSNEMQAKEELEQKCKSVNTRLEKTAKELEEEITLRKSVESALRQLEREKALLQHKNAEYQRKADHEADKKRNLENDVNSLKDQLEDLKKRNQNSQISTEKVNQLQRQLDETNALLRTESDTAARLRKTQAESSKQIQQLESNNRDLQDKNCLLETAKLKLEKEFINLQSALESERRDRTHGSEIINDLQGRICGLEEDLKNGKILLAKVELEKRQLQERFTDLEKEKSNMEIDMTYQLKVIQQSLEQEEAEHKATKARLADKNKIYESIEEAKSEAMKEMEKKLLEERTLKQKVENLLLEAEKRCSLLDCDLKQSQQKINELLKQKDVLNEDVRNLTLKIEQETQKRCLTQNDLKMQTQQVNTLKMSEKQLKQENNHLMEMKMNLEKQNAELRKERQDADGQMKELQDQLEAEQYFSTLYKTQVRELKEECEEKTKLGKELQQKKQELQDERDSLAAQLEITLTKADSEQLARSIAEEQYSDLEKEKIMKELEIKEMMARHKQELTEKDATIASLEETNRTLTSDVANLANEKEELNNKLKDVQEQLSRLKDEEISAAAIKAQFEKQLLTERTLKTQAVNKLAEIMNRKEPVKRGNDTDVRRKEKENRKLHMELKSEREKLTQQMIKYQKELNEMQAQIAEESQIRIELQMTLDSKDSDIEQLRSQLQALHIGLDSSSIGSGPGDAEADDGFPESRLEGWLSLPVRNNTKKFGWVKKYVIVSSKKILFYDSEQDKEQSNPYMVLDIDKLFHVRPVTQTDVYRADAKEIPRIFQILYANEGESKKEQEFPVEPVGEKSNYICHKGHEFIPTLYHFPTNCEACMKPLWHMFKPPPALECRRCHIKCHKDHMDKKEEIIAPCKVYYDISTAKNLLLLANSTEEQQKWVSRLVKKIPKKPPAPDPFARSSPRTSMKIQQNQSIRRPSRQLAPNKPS
For assay [6], the target named is Protein kinase C beta type (Homo sapiens) (UniProt P05771). As to the kind of experiment: Inhibition of human full length PKC beta2 expressed in baculovirus assessed as substrate phosphorylation using fluorescence-labelled peptides as substrate at 95 uM after 90 mins by microfluidic peptide phosphorylation assay.
The target of assay [7] is T2, Serine/threonine-protein kinase Sgk2 (Homo sapiens) (UniProt Q9HBY8).
T2 sequence (whole entry): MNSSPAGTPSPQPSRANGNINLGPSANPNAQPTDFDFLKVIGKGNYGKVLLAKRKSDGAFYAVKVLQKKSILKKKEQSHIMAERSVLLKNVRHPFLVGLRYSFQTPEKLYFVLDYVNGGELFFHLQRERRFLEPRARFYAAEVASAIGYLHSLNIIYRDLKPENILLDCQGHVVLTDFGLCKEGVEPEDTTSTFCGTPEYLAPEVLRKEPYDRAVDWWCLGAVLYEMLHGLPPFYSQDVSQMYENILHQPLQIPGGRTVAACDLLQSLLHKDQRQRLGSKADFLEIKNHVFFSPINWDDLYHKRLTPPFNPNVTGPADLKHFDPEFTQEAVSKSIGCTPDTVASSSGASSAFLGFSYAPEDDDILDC
The assay is described as follows: Inhibition of human full length SGK2 expressed in baculovirus assessed as substrate phosphorylation using fluorescence-labelled peptides as substrate at 9 uM after 90 mins by microfluidic peptide phosphorylation assay.

Assay [8] addresses T3, Testis-specific serine/threonine-protein kinase 1 (Homo sapiens) (UniProt Q9BXA7).
T3 sequence (whole entry): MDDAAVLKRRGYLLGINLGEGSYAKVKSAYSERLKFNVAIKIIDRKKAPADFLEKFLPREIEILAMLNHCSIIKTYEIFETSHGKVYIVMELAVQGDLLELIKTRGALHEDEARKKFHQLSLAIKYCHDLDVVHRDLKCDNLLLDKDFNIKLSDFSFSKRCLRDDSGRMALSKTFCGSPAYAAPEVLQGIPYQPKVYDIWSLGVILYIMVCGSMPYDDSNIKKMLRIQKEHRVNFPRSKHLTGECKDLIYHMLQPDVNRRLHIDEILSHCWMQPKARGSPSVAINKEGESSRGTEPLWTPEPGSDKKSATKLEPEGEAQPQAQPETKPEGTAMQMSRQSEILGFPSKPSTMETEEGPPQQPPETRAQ
The assay is described as follows: Inhibition of human full length TSSK1 expressed in baculovirus assessed as substrate phosphorylation using fluorescence-labelled peptides as substrate at 8 uM after 90 mins by microfluidic peptide phosphorylation assay.

In assay [9] the target is T4, Protein kinase C zeta type (Homo sapiens) (UniProt Q05513).
T4 sequence (whole entry): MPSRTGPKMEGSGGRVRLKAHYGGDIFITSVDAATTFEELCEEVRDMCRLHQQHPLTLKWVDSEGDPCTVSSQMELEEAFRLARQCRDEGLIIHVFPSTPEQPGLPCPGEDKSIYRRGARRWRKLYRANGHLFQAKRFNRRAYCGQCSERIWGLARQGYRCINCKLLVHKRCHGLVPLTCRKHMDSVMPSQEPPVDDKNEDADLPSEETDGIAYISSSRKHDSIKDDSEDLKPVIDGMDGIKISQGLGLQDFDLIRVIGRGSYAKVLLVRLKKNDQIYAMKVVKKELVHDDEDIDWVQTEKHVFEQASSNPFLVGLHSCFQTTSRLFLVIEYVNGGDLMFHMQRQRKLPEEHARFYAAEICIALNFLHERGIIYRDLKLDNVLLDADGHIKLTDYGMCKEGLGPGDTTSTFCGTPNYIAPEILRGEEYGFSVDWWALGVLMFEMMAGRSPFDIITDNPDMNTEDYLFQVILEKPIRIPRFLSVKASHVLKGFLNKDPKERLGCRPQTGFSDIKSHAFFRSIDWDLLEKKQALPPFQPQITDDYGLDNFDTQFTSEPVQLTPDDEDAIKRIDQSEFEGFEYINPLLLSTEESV
As to the kind of experiment: Inhibition of human full length PKC zeta expressed in baculovirus assessed as substrate phosphorylation using fluorescence-labelled peptides as substrate at 1000 uM after 90 mins by microfluidic peptide phosphorylation assay.

Each structure is given as a SMILES string.

For the molecule `Clc1ccc(C2(c3ccc(-c4ncnc5[nH]cnc45)cc3)CCNCC2)cc1`, the inhibition in assay [1] amounted to 53%; in [2], 3.5%; in [3] it was 5%. As for `C[C@H](CN(C)C)Oc1nc(Nc2cc3cccc(Cl)c3cn2)cnc1C#N`, the inhibition in assay [4] turned out to be 0.5%. For the molecule `c1nc(N2CCOCC2)c2nc[nH]c2n1`, the inhibition in assay [5] came out at 101%. Take `NCCc1ccc(-c2ncnc3[nH]cnc23)cc1`: the inhibition in [6] came to 0%.

For the molecule `NCC1CN(c2ncnc3[nH]c4cnccc4c23)CCO1` (centres undefined), in assay [7], the inhibition is 48.5%. In the case of `NCC1CCN(c2ncnc3[nH]ccc23)CC1`, in [8], the inhibition worked out at 25.5%.

As for `c1cnc2[nH]ccc2c1`, the inhibition in assay [9] came to 31.5%.
